This passage reports IC50 results from US20250066349A1 (Prothena Biosciences Limited, priority 2021, published 2025).

pIC50: −log10 of the molar value. Read-outs that look alike come from different tables or passages of the source.

The assay addresses DYRK1A (Homo sapiens (Human), UniProt Q13627). As to the kind of experiment: DYRK1A Inhibition Assay. The assay is classed as biochemical. The settings on record: DYRK1A 1 nM, ATP 20 μM, Ser/Thr 18 peptide 2 μM, 90 minutes, read-out: DYRK1 IC50. As for the experimental part: DYRK1A—Invitrogen #PV4105
• Ser/Thr 18 peptide—Invitrogen #PR8227U • Phos-Ser/Thr 18 peptide—Invitrogen #PR8229U • Assay plate—PerkinElmer #6007279 • ATP—Sigma #A7699-5G • Development reagent A—Invitrogen #PR5194B • Development buffer—Invitrogen #PR4876B Compound preparation • 1. Test compounds were diluted to 1 mM in DMSO • 2. Stock was further diluted 3-fold using Echo platform • 3. 100 nL of DMSO into Columns 1 and 24 and 100 nL of compounds dilutions to Columns 2-23 in a plate.
• 1. Add 5 μL enzyme & substrate mixture to each well in Column 2-23 and A24-H24 wells of the 384-well assay plate; • 2. Add 5 μL 0% Phosphorylation control to A1-H1 and I24-P24 wells of the assay plate; • 3. Add 5 μL 100% Phosphorylation control to I1-P1 wells of the assay plate; • 4. Spin the assay plate (1000 rpm, 1 minute @23° C.); • 5. Incubate enzyme with compounds for 15 minutes at 23° C.; • 6. Add 5 μL ATP solution to each well of the assay plate; • 7. Spin the plate (1000 rpm, 1 minute @23° C.); • 8. Incubate the assay plate for 90 minutes at 23° C.; • 9. Add 10 μL Development reagent A to each well of the assay plate; • 10. Centrifuge the plate at 1000 rpm about 15 seconds and seal a film over assay plate. Incubate the assay plate for 30 minutes at 23° C. • 11. Read assay plates on Envision (see Tables A-D).
Final Compound Concentrations
• Assay buffer: 50 mM Hepes pH7.5, 10 mM MgCl2, 1 mM EDTA, 0.01% Brij-35 • DYRK1A: 1 nM • ATP: 20 μM • Ser/Thr 18 peptide: 2 μM • Reaction time: 90 minutes

A word on the pIC50: it is the negative decadic logarithm of the IC50, by convention in mol/L. For the molecule `Cn1cc(-c2ccc3cnc4c(c3c2)CCO4)cn1` [Compound 74, 8-(1-methyl-1H-pyrazol-4-yl)-1,2-dihydrofuro[2,3-c]isoquinoline], the pIC50 (Compounds of Formula (I)) was 7.00 to 8.00.

Regarding `CN1CCC(c2cc3c(ncc4ccc(-c5cnn(C)c5)cc43)[nH]2)CC1` [Compound 40, 8-(1-methyl-1H-pyrazol-4-yl)-2-(1-methylpiperidin-4-yl)-3H-pyrrolo[2,3-c]isoquinoline], under “Compounds of Formula (I)”, the pIC50 is at least 8.00.

For `O=C1Cc2c(ncc3cc(-c4cnco4)ccc23)N1` [Compound 83], the pIC50 (Compounds of Formula (I)) was 6.00 to 7.00.

As to `Cn1cc(-c2ccc3cnc4[nH]c(C5CCNCC5)cc4c3c2)cn1` [Compound 39, 8-(1-methyl-1H-pyrazol-4-yl)-2-(piperidin-4-yl)-3H-pyrrolo[2,3-c]isoquinoline], the pIC50 (Compounds of Formula (I)) is at least 8.00.

On to `Cc1cc2c(ncc3ccc(-c4cnc(C#CC5CCOCC5)s4)cc32)[nH]1` [Compound 64], for which the pIC50 (Compounds of Formula (I)) is 7.00 to 8.00.

Turning to `c1ncc(-c2ccc3cnc4cc(C5CCOCC5)sc4c3c2)s1` [Compound 78, 2-(tetrahydro-2H-pyran-4-yl)-8-(thiazol-5-yl)thieno[3,2-c]isoquinoline], the pIC50 (Compounds of Formula (I)) was at least 8.00.

Regarding `Cn1cc(-c2ccc3cnc4nc(C5CCOCC5)oc4c3c2)cn1` [Compound 82, 8-(1-methyl-1H-pyrazol-4-yl)-2-(tetrahydro-2H-pyran-4-yl)oxazolo[4,5-c]isoquinoline], the pIC50 (Compounds of Formula (I)) was 6.00 to 7.00.

Consider `c1nc2c(ncc3ccc(-c4cncs4)cc32)[nH]1` [Compound 77], for which, where the note is “Compounds of Formula (I)”, the pIC50 is at least 8.00.

As for `CN1CCC(c2nc3c(-c4cn(C)c5cnccc45)ccnc3[nH]2)CC1` [Compound 5], the pIC50 (Compounds of Formula (II)) is 7.00 to 8.00.

For the molecule `Cc1ncc(-c2ccc3cnc4cc(C5CCOCC5)sc4c3c2)s1` [Compound 79, 8-(2-methylthiazol-5-yl)-2-(tetrahydro-2H-pyran-4-yl)thieno[3,2-c]isoquinoline], the pIC50 (Compounds of Formula (I)) is 7.00 to 8.00.

For the molecule `O[C@H]1CCN(c2cncc(-c3ccc4cnc5[nH]cc(C6CCC6)c5c4c3)c2)C1` [Compound 66, (S)-1-(5-(1-cyclobutyl-3H-pyrrolo[2,3-c]isoquinolin-8-yl)pyridin-3-yl)pyrrolidin-3-ol], the negative logarithm of the IC50 (pIC50) (Compounds of Formula (I)) is at least 8.00.

As for `C(#CC1CCOCC1)c1ncc(-c2ccc3cnc4[nH]ccc4c3c2)s1` [Compound 59], the pIC50 (Compounds of Formula (I)) was at least 8.00.

Consider `CC(=O)N1CCc2c(cnc3[nH]cc(-c4cccc(Cl)c4)c23)C1` [Compound 10], for which the pIC50 (Compounds of Formula (IV)) was 5.30 to 6.00.

For the molecule `COC1CC(n2c(=O)[nH]c3ncc4ccc(-c5cnn(C)c5)cc4c32)C1` (stereo not shown) [Compound 22, 1-(3-methoxycyclobutyl)-8-(1-methyl-1H-pyrazol-4-yl)-1,3-dihydro-2H-imidazo[4,5-c]isoquinolin-2-one], the pIC50 (Compounds of Formula (I)) is 6.00 to 7.00.

Take `CC(C)CN1CCC(c2cc3c(ncc4ccc(-c5cn[nH]c5)cc43)[nH]2)CC1` [Compound 89, 2-(1-isobutylpiperidin-4-yl)-8-(1H-pyrazol-4-yl)-3H-pyrrolo[2,3-c]isoquinoline]: under “Compounds of Formula (I)”, the pIC50 is 7.00 to 8.00.

Consider `O=C(O)C1CC(c2c[nH]c3ncc4ccncc4c23)C1` (stereo not shown) [Compound 35, 3-(7H-pyrrolo[2,3-c][2,6]naphthyridin-9-yl)cyclobutane-1-carboxylic acid], for which the pIC50 (Compounds of Formula (I)) is 6.00 to 7.00.

As to `O=c1oc2cc3cnccc3cc2n1CCc1nc2ccccc2[nH]1` [Compound 4], the pIC50 (Compounds of Formula (IV)) was 5.30 to 6.00.

In the case of `CN1CCC(C#Cc2ncc(-c3ccc4cnc5c(ccn5C)c4c3)s2)CC1` [Compound 62, 5-(3-methyl-3H-pyrrolo[2,3-c]isoquinolin-8-yl)-2-((1-methylpiperidin-4-yl)ethynyl)thiazole], under “Compounds of Formula (I)”, the pIC50 was 7.00 to 8.00.

Regarding `CN1CCC(C#Cc2ncc(-c3ccc4cnn(C)c4c3)s2)CC1` [Compound 8], the pIC50 (Compounds of Formula (III)) was 6.70 to 7.30.

Turning to `Cc1nc2ncc3ccc(-c4cnn(C)c4)cc3c2s1` [Compound 80], the negative-log IC50 (pIC50) (Compounds of Formula (I)) is 6.00 to 7.00.

Take `COc1cc(-c2ccc3c4c([nH]c(=O)c3c2)CN(C)CC4)ccc1F` [Compound 12]: the pIC50 (Compounds of Formula (IV)) was 5.30 to 6.00.

With `O=C(O)[C@H]1C[C@H](c2c[nH]c3ncc4ccccc4c32)C1` [Compound 33, (1r,3r)-3-(3H-pyrrolo[2,3-c]isoquinolin-1-yl)cyclobutane-1-carboxylic acid], the pIC50 (Compounds of Formula (I)) is 6.00 to 7.00.

Take `Cn1ncc2ccc(-c3cnc(C#CC4CCNCC4)s3)cc21` [Compound 7]: the pIC50 (Compounds of Formula (III)) is 6.70 to 7.30.

Consider `CN1CCc2c([nH]c(=O)c3cc(-c4ccnc5c4CCO5)ccc23)C1` [Compound 13], for which, for the setting “Compounds of Formula (IV)”, the pIC50 was 5.30 to 6.00.

Take `Cn1cc(-c2ccc3cnc4[nH]ncc4c3c2)cn1` [Compound 7, 8-(1-methyl-1H-pyrazol-4-yl)-3H-pyrazolo[3,4-c]isoquinoline]: the pIC50 (Compounds of Formula (I)) is 7.00 to 8.00.

With `O=C(O)[C@H]1C[C@@H](c2c[nH]c3ncc4cccnc4c32)C1` [Compound 36, (1s,3s)-3-(7H-pyrrolo[2,3-h][1,6]naphthyridin-9-yl)cyclobutane-1-carboxylic acid], for the setting “Compounds of Formula (I)”, the pIC50 is 6.00 to 7.00.

For `c1ncc(-c2ccc3cnc4c(c3c2)CCO4)s1` [Compound 75, 8-(thiazol-5-yl)-1,2-dihydrofuro[2,3-c]isoquinoline], the pIC50 (Compounds of Formula (I)) is 7.00 to 8.00.

On to `Cn1cc(-c2ccc3cnc4nc(C5CCOCC5)sc4c3c2)cn1` [Compound 81, 8-(1-methyl-1H-pyrazol-4-yl)-2-(tetrahydro-2H-pyran-4-yl)thiazolo[4,5-c]isoquinoline], for which the pIC50 (Compounds of Formula (I)) is 6.00 to 7.00.

As to `Cn1cc(-c2ccc3cnc4[nH]cc(C(=O)N5CCNCC5)c4c3c2)cn1` [Compound 12, (8-(1-methyl-1H-pyrazol-4-yl)-3H-pyrrolo[2,3-c]isoquinolin-1-yl)(piperazin-1-yl)methanone], for the setting “Compounds of Formula (I)”, the pIC50 is 7.00 to 8.00.

As for `Cn1cc(-c2ccc3cnc4c(c(C5CCC5)cn4C)c3c2)cn1` [Compound 38, 1-cyclobutyl-3-methyl-8-(1-methyl-1H-pyrazol-4-yl)-3H-pyrrolo[2,3-c]isoquinoline], the pIC50 (Compounds of Formula (I)) is 7.00 to 8.00.

On to `O=C(O)[C@H]1C[C@H](c2c[nH]c3ncc4cccnc4c32)C1` [Compound 37, (1r,3r)-3-(7H-pyrrolo[2,3-h][1,6]naphthyridin-9-yl)cyclobutane-1-carboxylic acid], for which the pIC50 (Compounds of Formula (I)) was 7.00 to 8.00.

With `Cn1cc(-c2ccc3cnc4c(c3c2)c([C@H]2CC[C@H](C(=O)O)CC2)cn4C)cn1` [Compound 47, 4-(3-methyl-8-(1-methyl-1H-pyrazol-4-yl)-3H-pyrrolo[2,3-c]isoquinolin-1-yl)cyclohexane-1-carboxylic acid], under “Compounds of Formula (I)”, the pIC50 is at least 8.00.

`Cc1c(C2CCN(CC(F)F)CC2)[nH]c2ncc3ccc(-c4cnn(C)c4)cc3c12` [Compound 55, 2-(1-(2,2-difluoroethyl)piperidin-4-yl)-1-methyl-8-(1-methyl-1H-pyrazol-4-yl)-3H-pyrrolo[2,3-c]isoquinoline]: the pIC50 (Compounds of Formula (I)) is at least 8.00.

On to `CC(C)CN1CCC(c2cc3c(ncc4ccc(-c5cncs5)cc43)[nH]2)CC1` [Compound 88, 5-(2-(1-isobutylpiperidin-4-yl)-3H-pyrrolo[2,3-c]isoquinolin-8-yl)thiazole], for which, under “Compounds of Formula (I)”, the pIC50 was at least 8.00.

Take `CN1CCC(C(=O)Nc2ncc(-c3ccc4sncc4c3)s2)CC1` [Compound 5]: the pIC50 (Compounds of Formula (III)) was 6.00 to 6.70.

Take `Cc1c(-c2cccc(C(=O)O)c2)[nH]c2ncc3ccncc3c12` [Compound 52, 3-(9-methyl-7H-pyrrolo[2,3-c][2,6]naphthyridin-8-yl)benzoic acid]: the pIC50 (Compounds of Formula (I)) is 6.00 to 7.00.

With `CC(=O)N1CCc2c(cnc3[nH]cc(-c4ccncc4)c23)C1` [Compound 7], for the setting “Compounds of Formula (IV)”, the pIC50 was 6.00 to 6.30.
